Experimental data: PubChem BioAssay (NCI)
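96-well plates; 48 h exposure; 5 concentrations. Endpoints by linear interpolation between flanking doses. Not reached: highest tested concentration assigned. The concentration for full growth arrest is given as TGI.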

Key:
Assay in all cases: NCI-60 cell line screen, 48 h
SNB-19 CNS = tested on: SNB-19 CNS
CAKI-1 renal = tested on: CAKI-1 renal
MCF7 breast = tested on: MCF7 breast
SK-MEL-5 melanoma = tested on: SK-MEL-5 melanoma
SN12C renal = tested on: SN12C renal
UO-31 renal = tested on: UO-31 renal
PC-3 prostate = tested on: PC-3 prostate
K-562 leukemia = tested on: K-562 leukemia
MOLT-4 leukemia = tested on: MOLT-4 leukemia
NCI-H226 lung = tested on: NCI-H226 lung
IGROV1 ovarian = tested on: IGROV1 ovarian
EKVX NSCLC = tested on: EKVX NSCLC
MALME-3M melanoma = tested on: MALME-3M melanoma
RPMI-8226 leukemia = tested on: RPMI-8226 leukemia
HCC-2998 colon = tested on: HCC-2998 colon
MDA-N = tested on: MDA-N
HS 578T breast = tested on: HS 578T breast
SF-539 CNS = tested on: SF-539 CNS
UACC-257 melanoma = tested on: UACC-257 melanoma
SR leukemia = tested on: SR leukemia
HCT-15 colon = tested on: HCT-15 colon
OVCAR-3 ovarian = tested on: OVCAR-3 ovarian
OVCAR-8 ovarian = tested on: OVCAR-8 ovarian
SW-620 colon = tested on: SW-620 colon
COLO 205 colon = tested on: COLO 205 colon
HOP-62 NSCLC = tested on: HOP-62 NSCLC
786-0 renal = tested on: 786-0 renal
HCT-116 colon = tested on: HCT-116 colon
CCRF-CEM leukemia = tested on: CCRF-CEM leukemia
A549 NSCLC = tested on: A549 NSCLC
HL-60(TB) leukemia = tested on: HL-60(TB) leukemia
ACHN renal = tested on: ACHN renal
HT29 colon = tested on: HT29 colon
U251 CNS = tested on: U251 CNS
SNB-75 CNS = tested on: SNB-75 CNS
NCI-H460 lung = tested on: NCI-H460 lung
NCI-H23 lung = tested on: NCI-H23 lung
NCI/ADR-RES ovarian = tested on: NCI/ADR-RES ovarian
LOX IMVI melanoma = tested on: LOX IMVI melanoma
KM12 colon = tested on: KM12 colon
BT-549 breast = tested on: BT-549 breast
RXF 393 renal = tested on: RXF 393 renal
SF-295 CNS = tested on: SF-295 CNS
TK-10 renal = tested on: TK-10 renal
MDA-MB-231 breast = tested on: MDA-MB-231 breast
MDA-MB-435 = tested on: MDA-MB-435
DU-145 prostate = tested on: DU-145 prostate
SK-MEL-28 melanoma = tested on: SK-MEL-28 melanoma
T-47D breast = tested on: T-47D breast
SF-268 CNS = tested on: SF-268 CNS
NCI-H522 lung = tested on: NCI-H522 lung
OVCAR-4 ovarian = tested on: OVCAR-4 ovarian
A498 renal = tested on: A498 renal
HOP-92 NSCLC = tested on: HOP-92 NSCLC
M14 melanoma = tested on: M14 melanoma
SK-OV-3 ovarian = tested on: SK-OV-3 ovarian
SK-MEL-2 melanoma = tested on: SK-MEL-2 melanoma
OVCAR-5 ovarian = tested on: OVCAR-5 ovarian

CC(C)(C)c1cc(S(=O)(=O)O)c2oc(-c3ccccc3)cc(=O)c2c1
TGI (SNB-19 CNS): > 100 µM
TGI (CAKI-1 renal): > 100 µM
TGI (MCF7 breast): > 100 µM
TGI (SK-MEL-5 melanoma): > 100 µM
TGI (SN12C renal): > 100 µM
TGI (UO-31 renal): > 100 µM
TGI (PC-3 prostate): > 100 µM
TGI (K-562 leukemia): > 100 µM
TGI (MOLT-4 leukemia): > 100 µM
TGI (NCI-H226 lung): > 100 µM
TGI (IGROV1 ovarian): > 100 µM
TGI (EKVX NSCLC): > 100 µM
TGI (MALME-3M melanoma): > 100 µM
TGI (RPMI-8226 leukemia): > 100 µM
TGI (HCC-2998 colon): > 100 µM
TGI (MDA-N): > 100 µM
TGI (HS 578T breast): > 100 µM
TGI (SF-539 CNS): > 100 µM
TGI (UACC-257 melanoma): > 100 µM
TGI (SR leukemia): > 100 µM
TGI (HCT-15 colon): > 100 µM
TGI (OVCAR-3 ovarian): > 100 µM
TGI (OVCAR-8 ovarian): > 100 µM
TGI (SW-620 colon): > 100 µM
TGI (COLO 205 colon): > 100 µM
TGI (HOP-62 NSCLC): > 100 µM
TGI (786-0 renal): > 100 µM
TGI (HCT-116 colon): > 100 µM
TGI (CCRF-CEM leukemia): > 100 µM
TGI (A549 NSCLC): > 100 µM
TGI (HL-60(TB) leukemia): > 100 µM
TGI (ACHN renal): > 100 µM
TGI (HT29 colon): > 100 µM
TGI (U251 CNS): > 100 µM
TGI (SNB-75 CNS): > 100 µM
TGI (NCI-H460 lung): > 100 µM
TGI (NCI-H23 lung): > 100 µM
TGI (NCI/ADR-RES ovarian): > 100 µM
TGI (LOX IMVI melanoma): > 100 µM
TGI (KM12 colon): > 100 µM
TGI (BT-549 breast): > 100 µM
TGI (RXF 393 renal): > 100 µM
TGI (SF-295 CNS): > 100 µM
TGI (TK-10 renal): > 100 µM
TGI (MDA-MB-231 breast): > 100 µM
TGI (MDA-MB-435): > 100 µM
TGI (DU-145 prostate): > 100 µM
TGI (SK-MEL-28 melanoma): > 100 µM
TGI (T-47D breast): > 100 µM
TGI (SF-268 CNS): > 100 µM
TGI (NCI-H522 lung): > 100 µM

COc1cc(C2C3=C(COC3=O)OC(C)(C)Oc3cc4c(cc32)OCO4)cc(OC)c1O (centres undefined)
TGI (SNB-19 CNS): > 100 µM
TGI (OVCAR-4 ovarian): > 100 µM
TGI (CAKI-1 renal): > 46.4 µM
TGI (MCF7 breast): > 100 µM
TGI (SK-MEL-5 melanoma): 19.4 µM
TGI (A498 renal): 68 µM
TGI (HOP-92 NSCLC): > 94.5 µM
TGI (SN12C renal): > 100 µM
TGI (UO-31 renal): > 100 µM
TGI (PC-3 prostate): > 100 µM
TGI (M14 melanoma): > 100 µM
TGI (K-562 leukemia): > 20.3 µM
TGI (SK-OV-3 ovarian): > 100 µM
TGI (MOLT-4 leukemia): > 100 µM
TGI (IGROV1 ovarian): > 100 µM
TGI (EKVX NSCLC): > 100 µM
TGI (MALME-3M melanoma): > 100 µM
TGI (RPMI-8226 leukemia): > 100 µM
TGI (HCC-2998 colon): 7.88 µM
TGI (MDA-N): 0.423 µM
TGI (HS 578T breast): > 100 µM
TGI (UACC-257 melanoma): > 100 µM
TGI (SR leukemia): > 100 µM
TGI (HCT-15 colon): > 100 µM
TGI (OVCAR-3 ovarian): > 100 µM
TGI (OVCAR-8 ovarian): > 100 µM
TGI (SW-620 colon): > 31.3 µM
TGI (COLO 205 colon): 6.68 µM
TGI (HOP-62 NSCLC): > 100 µM
TGI (786-0 renal): > 100 µM
TGI (HCT-116 colon): > 20.8 µM
TGI (SK-MEL-2 melanoma): > 100 µM
TGI (CCRF-CEM leukemia): > 100 µM
TGI (OVCAR-5 ovarian): > 100 µM
TGI (A549 NSCLC): > 76.8 µM
TGI (HL-60(TB) leukemia): 1.49 µM
TGI (ACHN renal): > 100 µM
TGI (HT29 colon): > 23.3 µM
TGI (U251 CNS): > 100 µM
TGI (NCI-H460 lung): > 100 µM
TGI (NCI-H23 lung): > 22.1 µM
TGI (LOX IMVI melanoma): > 100 µM
TGI (KM12 colon): > 44.5 µM
TGI (BT-549 breast): > 100 µM
TGI (RXF 393 renal): 0.552 µM
TGI (TK-10 renal): > 100 µM
TGI (MDA-MB-231 breast): 11.5 µM
TGI (MDA-MB-435): 0.645 µM
TGI (DU-145 prostate): > 100 µM
TGI (SK-MEL-28 melanoma): > 100 µM
TGI (T-47D breast): > 100 µM
TGI (SF-268 CNS): > 100 µM
TGI (NCI-H522 lung): 6.72 µM
